ChEMBL document CHEMBL4732126, “Design, synthesis, and biodistribution studies of new analogues of marine alkaloids: Potent in vitro and in vivo fungicidal agents against Candida spp” (Eur J Med Chem, 2021)
Activity calls are given as the source filed them. No cut-off for these calls is given here.

Columns and labels:
[1] = Toxicity in Swiss mouse assessed as relative kidney weight at 10 mg/kg, ip measured after 24 hrs (reference value: 14.91 +/- 0.99 g); assay type: organism-based; conditions: in vivo
[2] = Toxicity in Swiss mouse assessed as relative spleen weight at 3 mg/kg, ip measured after 24 hrs (reference value: 4.02 +/- 0.59 g); assay type: organism-based; conditions: in vivo
[3] = Toxicity in Swiss mouse assessed as body weight at 0.5 mg/kg, ip measured after 24 hrs (reference value: 36.25 +/- 0.31 g); assay type: organism-based; conditions: in vivo
[4] = Toxicity in Swiss mouse infected with Candida albicans ATCC 10231 assessed as effect on liver weight at 10 mg/kg, ip administered at 2, 24 and 48 hrs post-infection and measured at 24 hrs after last dose; assay type: organism-based; conditions: in vivo, 72 h
[5] = Toxicity in Swiss mouse assessed as relative kidney weight at 1 mg/kg, ip measured after 24 hrs (reference value: 14.91 +/- 0.99 g); assay type: organism-based; conditions: in vivo
[6] = Toxicity in Swiss mouse infected with Candida albicans ATCC 10231 assessed as effect on spleen weight at 10 mg/kg, ip administered at 2, 24 and 48 hrs post-infection and measured at 24 hrs after last dose; assay type: organism-based; conditions: in vivo, 72 h
[7] = Toxicity in Swiss mouse assessed as body weight at 20 mg/kg, ip measured after 24 hrs (reference value: 36.25 +/- 0.31 g); assay type: organism-based; conditions: in vivo
Pichia kudriavzevii [8] = assay: Antifungal activity against Candida krusei ATCC 34135 assessed as reduction in fungal growth incubated for 48 hrs in presence of sorbitol by broth microdilution method; assay type: functional
Candida albicans [9] = assay: Fungicidal activity against Candida albicans isolate 1 assessed as fungal killing incubated for 48 hrs followed by plating on SD agar plate; assay type: functional; conditions: read-out: MFC99.9
[10] = Toxicity in Swiss mouse assessed as relative lung weight at 0.5 mg/kg, ip measured after 24 hrs (reference value: 6.35 +/- 0.68 g); assay type: organism-based; conditions: in vivo
Candida albicans [11] = assay: Fungicidal activity against Candida albicans ATCC 10231 assessed as reduction in fungal load at 15.6 ug/ml incubated for 4 hrs followed by inoculation on SD agar plate for 48 hrs by time-kill assay; assay type: functional; conditions: dose 15.6 µg/ml; time 52 hrs
[12] = Toxicity in Swiss mouse infected with Candida albicans ATCC 10231 assessed as effect on spleen at 10 mg/kg, ip administered at 2, 24 and 48 hrs post-infection and measured at 24 hrs after last dose by macroscopic analysis; assay type: organism-based; conditions: in vivo, 72 h
Candida tropicalis = assay: Antifungal activity against Candida tropicalis ATCC 28707 assessed as reduction in fungal growth incubated for 48 hrs by broth microdilution method; assay type: functional
Nakaseomyces glabratus = assay: Disruption of cell membrane in Candida glabrata ATCC 2001 assessed as increase in intracellular leakage at MIC incubated for 24 hrs by UV spectrophotometric analysis; assay type: cell-based
[13] = Toxicity in Swiss mouse infected with Candida albicans ATCC 10231 assessed as effect on lung weight at 10 mg/kg, ip administered at 2, 24 and 48 hrs post-infection and measured at 24 hrs after last dose; assay type: organism-based; conditions: in vivo, 72 h
[14] = Toxicity in Swiss mouse infected with Candida albicans ATCC 10231 assessed as effect on heart weight at 10 mg/kg, ip administered at 2, 24 and 48 hrs post-infection and measured at 24 hrs after last dose; assay type: organism-based; conditions: in vivo, 72 h
Candida albicans [15] = assay: Fungicidal activity against Candida albicans isolate 2 assessed as fungal killing incubated for 48 hrs followed by plating on SD agar plate; assay type: functional; conditions: read-out: MFC99.9
Candida albicans [16] = assay: Fungicidal activity against Candida albicans ATCC 10231 assessed as reduction in fungal load at 7.8 to 15.6 ug/ml incubated for 8 hrs followed by inoculation on SD agar plate for 48 hrs by time-kill assay; assay type: functional, organism-based; conditions: dose 7.8-15.6 µg/ml, time 56.0 hrs
Candida albicans [17] = assay: Antifungal activity against Candida albicans isolate 6 assessed as reduction in fungal growth incubated for 48 hrs by broth microdilution method; assay type: functional
Candida albicans [18] = assay: Fungicidal activity against Candida albicans isolate 6 assessed as fungal killing incubated for 48 hrs followed by plating on SD agar plate; assay type: functional; conditions: read-out: MFC99.9
[19] = Toxicity in Swiss mouse infected with Candida albicans ATCC 10231 assessed as effect on body weight at 0.5 to 1 mg/kg, ip administered at 2, 24 and 48 hrs post-infection and measured at 24 hrs after last dose; assay type: organism-based; conditions: in vivo, 72 h, dose 0.5-1 mg/kg
Candida albicans [20] = assay: In vivo antifungal activity in Swiss mouse infected with Candida albicans ATCC 10231 assessed as reduction in fungal load in spleen at 0.5 mg/kg, ip administered at 2, 24 and 48 hrs post-infection and measured per gm of organ at 24 hrs post-last dose (reference value: 2.34); assay type: functional; conditions: time 72 hrs
[21] = Toxicity in Swiss mouse assessed as death of organism at 0.5 to 20 mg/kg, ip measured for 24 hrs; assay type: organism-based; conditions: in vivo, dose 0.5-20 mg/kg
[22] = Toxicity in Swiss mouse infected with Candida albicans ATCC 10231 assessed as effect on liver at 10 mg/kg, ip administered at 2, 24 and 48 hrs post-infection and measured at 24 hrs after last dose by macroscopic analysis; assay type: organism-based; conditions: in vivo, 72 h
Pichia kudriavzevii [23] = assay: Antifungal activity against Candida krusei ATCC 34135 assessed as reduction in fungal growth incubated for 48 hrs in presence of ergosterol by broth microdilution method; assay type: functional
[24] = Toxicity in Swiss mouse assessed as effect on spleen at 0.5 to 10 mg/kg, ip measured after 24 hrs by macroscopic analysis; assay type: organism-based; conditions: in vivo, dose 0.5-10 mg/kg
Candida albicans [25] = assay: Fungicidal activity against Candida albicans isolate 8 assessed as fungal killing incubated for 48 hrs followed by plating on SD agar plate; assay type: functional; conditions: read-out: MFC99.9
Candida albicans [26] = assay: Fungicidal activity against Candida albicans isolate 7 assessed as fungal killing incubated for 48 hrs followed by plating on SD agar plate; assay type: functional; conditions: read-out: MFC99.9
[27] = Toxicity in Swiss mouse assessed as effect on lung at 0.5 to 10 mg/kg, ip measured after 24 hrs by macroscopic analysis; assay type: organism-based; conditions: in vivo, dose 0.5-10 mg/kg
Pichia kudriavzevii [28] = assay: Disruption of cell membrane in Candida krusei ATCC 34135 assessed as increase in intracellular leakage at MIC incubated for 24 hrs by UV spectrophotometric analysis; assay type: cell-based
[29] = Toxicity in Swiss mouse infected with Candida albicans ATCC 10231 assessed as effect on lung at 10 mg/kg, ip administered at 2, 24 and 48 hrs post-infection and measured at 24 hrs after last dose by macroscopic analysis; assay type: organism-based; conditions: in vivo, 72 h
[30] = Toxicity in Swiss mouse assessed as relative heart weight at 0.5 mg/kg, ip measured after 24 hrs (reference value: 4.75 +/- 0.60 g); assay type: organism-based; conditions: in vivo
Candida albicans [31] = assay: In vivo antifungal activity in Swiss mouse infected with Candida albicans ATCC 10231 assessed as reduction in fungal load in liver at 1 mg/kg, ip administered at 2, 24 and 48 hrs post-infection and measured per gm of organ at 24 hrs post-last dose (reference value: 1.80); assay type: functional; conditions: time 72 hrs
[32] = Toxicity in Swiss mouse assessed as relative heart weight at 10 mg/kg, ip measured after 24 hrs (reference value: 4.75 +/- 0.60 g); assay type: organism-based; conditions: in vivo
Candida albicans [33] = assay: Antifungal activity against Candida albicans isolate 5 assessed as reduction in fungal growth incubated for 48 hrs by broth microdilution method; assay type: functional
Candida albicans [34] = assay: Antifungal activity against Candida albicans isolate 4 assessed as reduction in fungal growth incubated for 48 hrs by broth microdilution method; assay type: functional

For `[Cl-].[N-]=[N+]=NCCCCCCCCCCCCOCCCc1ccc[n+](Cc2ccccc2)c1`, the Activity [1] was 15.52 g, the Activity [2] was 4.07 g and the Activity [3] was 37.37 g. The Activity [4] was “Non-Toxic”, the Activity [5] was 13.58 g and the Activity [6] was “Non-Toxic”. It also gave an Activity [7] of 32.5 g, an MIC (Pichia kudriavzevii [8]) of 3.9 µg/mL and an MFC (Candida albicans [9]) of 7.8 µg/mL. For the same compound, the Activity [10] was 5.57 g, the “log(activity)” value (Candida albicans [11]) was 2 and the Activity [12] was “Non-Toxic”. The MIC (Candida tropicalis) was 7.8 µg/mL, the Activity (Nakaseomyces glabratus) was “Active” and the Activity [13] was “Non-Toxic”. For the same compound, the Activity [14] was “Non-Toxic”, the MFC (Candida albicans [15]) was 7.8 µg/mL and the Activity (Candida albicans [16]) was “Active”. The MIC (Candida albicans [17]) was 15.6 µg/mL, the MFC (Candida albicans [18]) was 31.2 µg/mL and the Activity [19] was “Non-Toxic”. For the same compound, the Activity (Candida albicans [20]) was 0 log10CFU, the Activity [21] was “Non-Toxic” and the Activity [22] was “Non-Toxic”. The MIC (Pichia kudriavzevii [23]) was 15.6 µg/mL, the Activity [24] was “Non-Toxic” and the MFC (Candida albicans [25]) was 7.8 µg/mL. The MFC (Candida albicans [26]) was 3.9 µg/mL, the Activity [27] was “Non-Toxic” and the Activity (Pichia kudriavzevii [28]) was “Active”. The Activity [29] was “Non-Toxic”, the Activity [30] was 5.75 g and the Activity (Candida albicans [31]) was 1.78 log10CFU. For the same compound, the Activity [32] was 4.95 g, the MIC (Candida albicans [33]) was 7.8 µg/mL and the MIC (Candida albicans [34]) was 1.95 µg/mL.
